Drawing on patent US20040198981A1, “Tricyclic dihydroquinoline derivatives,method for preparing same and pharmaceutical compositions containing same” (priority 2001, published 2004), this text covers IC50 for one molecule.

The assay deals with murine leukaemia, L1210. Put plainly: In vitro cytotoxicity, Microculture Tetrazolium Assay. In kind it is cell-based. The conditions noted are these: Mus musculus, 48 h; L1210 cells, incubated for 2 days; read-out: IC50 (concentration of cytotoxic agent which inhibits proliferation of the treated cells by 50%). How it is done: Three cell lines were used:
1 murine leukaemia, L1210,
1 human non-small-cell lung carcinoma, A549,
1 human colon carcinoma, HT29.
The cells are cultured in RPMI 1640 complete culture medium containing 10% foetal calf serum, 2 mM glutamine, 50 units/ml of penicillin, 50 μg/ml of streptomycin and 10 mM Hepes, pH=7.4. The cells are distributed on microplates and are exposed to the cytotoxic compounds. The cells are then incubated for 2 days (L1210) or 4 days (A549, HT29). The number of viable cells is then quantified by a colorimetric assay, the Microculture Tetrazolium Assay (Cancer Res. 1987, 47, 939-942).

The structures appear in SMILES notation.

In the case of `COc1cc(C2C3=C(COC3=S)N(Cc3ccccc3)c3cc4c(cc32)OCO4)cc(OC)c1OC` (stereo not shown) [Example 5, 4-Benzyl-6,7-methylenedioxy-9-(3,4,5-trimethoxyphenyl)-4,9-dihydrofuro[3,4-b]quinoline-1(3H)-thione], the IC50 was determined as 190 nM.
